{"source": "patent US20250345318A1", "about": "“COMPOUND AND USE THEREOF IN PREVENTING OR TREATING RADIATION DAMAGE” (SIMCERE PHARMACEUTICAL CO., LTD., priority 2022, published 2025)", "system": "JWA", "assay": "JWA expression in small intestine by Western blot (Example 4)", "format": "in vivo, mice", "settings": "small intestine tissue; JAC4 100 mg/kg oral, 7 days before and 4 days after TBI 6 Gy", "description": "C57BL/6 male mice (24.8±1.6 g in body weight) aged 10 weeks were divided into 2 groups. After acclimating to the environment, JAC4 (100 mg/kg) or an equal volume of vehicle (polyethylene glycol:ethanol:physiological saline=47.5:7.5:50, v/v/v) was orally administered to the mice once daily for 7 consecutive days. After that, the mice were subjected to total body X-ray irradiation (6 Gy) and JAC4 or vehicle treatment was continued for 4 days, after which small intestine tissues were collected. The expression levels of JWA in the small intestine were detected by Western blot, with β-actin as the reference. Adobe photoshop CC was used to measure the grayscale value of JWA/β-actin in panel A for statistical analysis (** p<0.01).\nThe Western blot procedures are as follows:\n1. Protein sample preparation: Proper volumes of protein sample solutions were mixed with physiological saline to give […] solutions at a volume of 16 μL, and 4 μL of 5×SDS sample buffer was added. The mixture was uniformly mixed, centrifuged at 1000×g for 10 s, and boiled at 100° C. for 5 min. The samples were cooled at room temperature and then preserved in a −20° C. freezer.\n(1) Lower separating gel: The glass plates and gel cassette were assembled while ensuring that the bottom of the glass plates was sealed to prevent leakage of the gel. […]", "data": [{"smiles": "c1ccc(CSc2nnc(C3COc4ccccc4O3)o2)nc1", "note": "(stereo not shown) [JAC4]", "values": [{"measurement": "mean grayscale value of JWA expression (JWA/β-actin)", "result": "0.72±0.13"}]}]}
